Activity calls are given as the source filed them.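 How the source made its calls: active means IC50 below three times the IC50 of the reference antileishmanial control drug; inactive means the rest.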
System: L. donovani axenic amastigotes, Alamar blue, 72 h
Experiment: antileishmanial activity on axenic amastigotes – plate reader, cherry pick, dose response (AID 651891)

C[C@@H]1CN([C@@H](C)CO)C(=O)c2cccc(NC(=O)c3ccncc3)c2O[C@H]1CN(C)Cc1ccc(Oc2ccccc2)cc1
IC50: 21.2 µM (inactive)

From PubChem BioAssay AID651891 (Broad Institute, 2012)
